Assay results taken from patent US10836769B2, “Substituted pyrrolizine compounds and uses thereof” (Gilead Sciences, Inc., priority 2018, dated 2020).
≈ marks a conversion by molar mass, not a printed value. Read-outs that look alike come from different tables or passages of the source.

Key:
HBV = HBV DNA Quantification Assay; format: cell-based
Protocol: A HepG2 cell line overexpressing the HBV virus attachment receptor sodium-taurocholate cotransporting polypeptide (NTCP) was grown to confluency in DMEM growth medium, Dulbecco's Modified Eagle Medium without sodium pyruvate (Life Technologies, Rockville, Md.) supplemented with 10% FBS (Thermo Scientific, Waltham, Md.), 1% penicillin/streptomycin (Life Technologies, Rockville, Md.) and 2 mM L-glutamine (Life Technologies, Rockville, Md.) in T175 flasks. Cells were infected with HBV AD38 viral particles (Texcell, Frederick, USA) at 4000 genome equivalents per cell. After allowing viral infection to take place for 4 days, the infected cells were harvested from the flasks by trypsinization, washed twice with OptiMEM (Life Technologies, Rockville, Md.) and re-suspended in DMEM containing 2% FBS and 1% DMSO at a density of 0.25E6 cells/ml. Infected cells were seeded on 384 well collagen coated plates (Greiner, Austria) at a density of 20,000 cells/well containing serially diluted compounds of the present disclosure or DMSO (0.5%) in a final volume of 80 μl. The assay plates were incubated for a period of 5 days and the antiviral activity of the test compounds were assayed by detecting the presence of HBV DNA in the culture supernatant using the QuantiGene™ 2.0 nucleic acid quantification kit (Affymetrix, Santa Clara, Calif.).
The culture supernatant was harvested and treated with lysis buffer containing Proteinase K (Affymetrix, Santa Clara, Calif.). The supernatant was incubated with HBV viral DNA specific probes (Affymetrix, Santa Clara, Calif.) for 30 minutes at 55° C. This was followed by addition of 0.2M NaOH for 30 minutes at room temperature to denature the DNA, followed by addition of Neutralization buffer (Affymetrix, Santa Clara, Calif.). The resulting lysed and neutralized supernatant was then added to QuantiGene™ 2.0 384 well plates coated with capture oligonucleotides and incubated overnight at 55° C. The HBV specific probe set consists of Capture Extender oligonucleotides (CE's) and blocking probes. Following the overnight incubation, the wells were incubated for one hour sequentially with a Pre-Amplifier, Amplifier and Labeled probes conjugated to alkaline phosphatase with a wash step between incubations. After the final wash step, the alkaline phosphatase substrate (Luminol APS5) was added and the resulting luminescence signal was read in an EnVision Multilabel Plate Reader (PerkinElmer, Santa Clara, Calif.). The EC50 values were calculated from the fit of the dose-response curves to a four-parameter equation. All EC50 values represent geometric mean values of a minimum of four determinations.

Kinetic Solubility = format: physicochemical; details: 0.2 to 100 μM, BD Gentest Solubility Scanner
Protocol: The 10 mM DMSO stock solution of the test compound is serially diluted into a 96-well “DMSO stock dilution plate”. Then Pipette 2 μL from the DMSO stock dilution plate into the “Sample plate” and dilute with 198 µL of the assay media to generate the final concentrations of the test compound ranging from 0.2 to 100 μM. The “Sample plate” is run on a BD Gentest Solubility Scanner.

[1] = Hepatitis B virus, 120 h, HepG2 cell line overexpressing NTCP infected with HBV AD38 viral particles, HBV DNA in culture supernatant after 5 days, geometric mean of a minimum of four determinations, read-out: EC50
[2] = aqueous buffer, kinetic from dmso stock, pH = 7, read-out: Kinetic Solubility at pH = 7
[3] = simulated gastric fluid, kinetic from dmso stock, pH = 1, read-out: Kinetic Solubility at pH = 1
[4] = Hepatitis B virus, HepG2, 120 h
[5] = assay media at pH 1 (composition not named), simulated gastric fluid, kinetic from dmso stock, pH = 1, read-out: Kinetic Solubility at pH = 1
[6] = assay media at pH 7 (composition not named), aqueous buffer, kinetic from dmso stock, pH = 7, read-out: Kinetic Solubility at pH = 7

For `Cc1c(C(=O)Nc2cc(F)c(F)c(F)c2)c2n(c1C(=O)C(=O)NC1(c3cnn[nH]3)CC(F)(F)C1)CCC2` [Example 18], the EC50 (HBV; [1]) was 2.4 nM, the solubility kinetic (Kinetic Solubility; [2]) was 52.7 µM (≈ 27.5 µg/mL) and the solubility kinetic (Kinetic Solubility; [3]) was 50 µM (≈ 26.1 µg/mL).
Work on `CNC(=O)C1(NC(=O)C(=O)c2c(C)c(C(=O)Nc3ccnc(C(F)F)c3F)c3n2CCC3)CC(F)(F)C1` [Example 20, 5-(2-((3,3-difluoro-1-(methylcarbamoyl)cyclobutyl)amino)-2-oxoacetyl)-N-(2-(difluoromethyl)-3-fluoropyridin-4-yl)-6-methyl-2,3-dihydro-1H-pyrrolizine-7-carboxamide] yielded an EC50 (HBV; [1]) of 503 nM, a solubility kinetic (Kinetic Solubility; [2]) of 28 µM (≈ 14.8 µg/mL) and a solubility kinetic (Kinetic Solubility; [3]) of 26.3 µM (≈ 13.9 µg/mL).
`Cc1c(C(=O)Nc2ccc(F)c(F)c2)c2n(c1C(=O)C(=O)NC1(C(N)=O)CC(F)(F)C1)CCC2` [Example 44, 5-(2-((1-carbamoyl-3,3-difluorocyclobutyl)amino)-2-oxoacetyl)-N-(3,4-difluorophenyl)-6-methyl-2,3-dihydro-1H-pyrrolizine-7-carboxamide] showed an EC50 (HBV; [1]) of 15.2 nM, a solubility kinetic (Kinetic Solubility; [2]) of 49.8 µM (≈ 23.9 µg/mL) and a solubility kinetic (Kinetic Solubility; [3]) of 90.3 µM (≈ 43.4 µg/mL).
For `CNC(=O)C1(NC(=O)C(=O)c2c(C)c(C(=O)Nc3ccc(F)c(F)c3)c3n2C[C@H]2C[C@@H]32)CC(F)(F)C1` [Example 26, (1aS,6bR)-4-(2-((3,3-difluoro-1-(methylcarbamoyl)cyclobutyl)amino)-2-oxoacetyl)-N-(3,4-difluorophenyl)-5-methyl-1,1a,2,6b-tetrahydrocyclopropa[a]pyrrolizine-6-carboxamide], the EC50 (HBV; [1]) was 20.6 nM, the solubility kinetic (Kinetic Solubility; [2]) was > 100 µM and the solubility kinetic (Kinetic Solubility; [3]) was > 100 µM.
Work on `Cc1c(C(=O)Nc2ccc(F)c(F)c2)c2n(c1C(=O)C(=O)NC1(c3cnn[nH]3)CC(F)(F)C1)C[C@H]1C[C@@H]21` [Example 25, (1aS,6bR)-4-(2-((3,3-difluoro-1-(1H-1,2,3-triazol-5-yl)cyclobutyl)amino)-2-oxoacetyl)-N-(3,4-difluorophenyl)-5-methyl-1,1a,2,6b-tetrahydrocyclopropa[a]pyrrolizine-6-carboxamide] yielded an EC50 (HBV; [1]) of 1.9 nM, a solubility kinetic (Kinetic Solubility; [2]) of 65 µM (≈ 33.6 µg/mL) and a solubility kinetic (Kinetic Solubility; [3]) of 72.6 µM (≈ 37.5 µg/mL).
`Cc1c(C(=O)Nc2ccc(F)cc2)c2n(c1C(=O)C(=O)NC1(c3cn(C)nn3)CC(F)(F)C1)CCC2` [Example 10] gave an EC50 (HBV; HepG2 cell line overexpressing NTCP infected with HBV AD38 viral particles, HBV DNA in culture supernatant after 5 days, geometric mean of a minimum of four determinations, read-out: EC50) of 33.2 nM, a solubility kinetic (Kinetic Solubility; pH = 1, read-out: Kinetic Solubility at pH = 1) of 1.4 µM (≈ 0.701 µg/mL) and a solubility kinetic (Kinetic Solubility; pH = 7, read-out: Kinetic Solubility at pH = 7) of 52.8 µM (≈ 26.4 µg/mL).
In the case of `Cc1c(C(=O)Nc2ccc(F)cc2)c2n(c1C(=O)C(=O)NC1(c3nncs3)CC1)CCC2` [Example 30, 5-(2-((1-(1,3,4-thiadiazol-2-yl)cyclopropyl)amino)-2-oxoacetyl)-N-(4-fluorophenyl)-6-methyl-2,3-dihydro-1H-pyrrolizine-7-carboxamide], the EC50 (HBV; [1]) is reported as 30.6 nM, the solubility kinetic (Kinetic Solubility; [2]) is reported as 13 µM (≈ 5.9 µg/mL) and the solubility kinetic (Kinetic Solubility; [3]) is reported as > 100 µM.
For `Cc1c(C(=O)Nc2cc(F)c(F)c(F)c2)c2n(c1C(=O)C(=O)NC1(c3nncs3)CC(F)(F)C1)CCC2` [Example 1, 5-(2-((3,3-difluoro-1-(1,3,4-thiadiazol-2-yl)cyclobutyl)amino)-2-oxoacetyl)-6-methyl-N-(3,4,5-trifluorophenyl)-2,3-dihydro-1H-pyrrolizine-7-carboxamide], the EC50 (HBV; [1]) was 2.5 nM, the solubility kinetic (Kinetic Solubility; [2]) was 1.7 µM (≈ 0.917 µg/mL) and the solubility kinetic (Kinetic Solubility; [3]) was < 1 µM.
In the case of `Cc1c(C(=O)Nc2ccc(F)c(Cl)c2)c2n(c1C(=O)C(=O)NC1(c3cnn[nH]3)CC(F)(F)C1)CCC2` [Example 16, N-(3-chloro-4-fluorophenyl)-5-(2-((3,3-difluoro-1-(1H-1,2,3-triazol-4-yl)cyclobutyl)amino)-2-oxoacetyl)-6-methyl-2,3-dihydro-1H-pyrrolizine-7-carboxamide], the EC50 (HBV; [1]) is reported as 1.8 nM, the solubility kinetic (Kinetic Solubility; [2]) is reported as 2.8 µM (≈ 1.46 µg/mL) and the solubility kinetic (Kinetic Solubility; [3]) is reported as 16.5 µM (≈ 8.59 µg/mL).
Work on `CNC(=O)C1(NC(=O)C(=O)c2c(C)c(C(=O)Nc3ccc(F)c(Cl)c3)c3n2CCC3)CC(F)(F)C1` [Example 35] yielded an EC50 (HBV; [1]) of 14.2 nM, a solubility kinetic (Kinetic Solubility; [2]) of 3.4 µM (≈ 1.74 µg/mL) and a solubility kinetic (Kinetic Solubility; [3]) of 9.1 µM (≈ 4.65 µg/mL).
With `Cc1c(C(=O)Nc2ccc(F)c(C#N)c2)c2n(c1C(=O)C(=O)NC1(c3nncs3)CC(F)(F)C1)CCC2` [Example 2] the EC50 (HBV; [1]) was 4.8 nM, the solubility kinetic (Kinetic Solubility; [2]) was 7.4 µM (≈ 3.91 µg/mL) and the solubility kinetic (Kinetic Solubility; [3]) was 7.8 µM (≈ 4.12 µg/mL).
In the case of `Cc1c(C(=O)Nc2ccc(F)c(C#N)c2)c2n(c1C(=O)C(=O)NC1(c3cnn[nH]3)CC(F)(F)C1)CCC2` [Example 15, N-(3-cyano-4-fluorophenyl)-5-(2-((3,3-difluoro-1-(1H-1,2,3-triazol-4-yl)cyclobutyl)amino)-2-oxoacetyl)-6-methyl-2,3-dihydro-1H-pyrrolizine-7-carboxamide], the EC50 (HBV; [1]) is reported as 5.2 nM, the solubility kinetic (Kinetic Solubility; [2]) is reported as 13.9 µM (≈ 7.11 µg/mL) and the solubility kinetic (Kinetic Solubility; [3]) is reported as 13.5 µM (≈ 6.9 µg/mL).
In the case of `Cc1c(C(=O)Nc2ccc(F)c(C(F)F)c2)c2n(c1C(=O)C(=O)NC1(c3nncs3)CC1)CCC2` [Example 31], the EC50 (HBV; [1]) is reported as 16.5 nM, the solubility kinetic (Kinetic Solubility; [2]) is reported as 6.3 µM (≈ 3.17 µg/mL) and the solubility kinetic (Kinetic Solubility; [3]) is reported as 23.1 µM (≈ 11.6 µg/mL).
`C#CC1(NC(=O)C(=O)c2c(C)c(C(=O)Nc3ccc(F)c(F)c3)c3n2CCC3)CC1` [Example 13] gave an EC50 (HBV; [4]) of 8.5 nM, a solubility kinetic (Kinetic Solubility; [5]) of 5 µM (≈ 2.06 µg/mL) and a solubility kinetic (Kinetic Solubility; [6]) of 6.4 µM (≈ 2.63 µg/mL).
`Cc1c(C(=O)Nc2ccc(F)c(C(F)F)c2)c2n(c1C(=O)C(=O)NC1(C(N)=O)CC(F)(F)C1)CCC2` [Example 32, 5-(2-((1-carbamoyl-3,3-difluorocyclobutyl)amino)-2-oxoacetyl)-N-(3-(difluoromethyl)-4-fluorophenyl)-6-methyl-2-dihydro-1H-pyrrolizine-7-carboxamide] showed an EC50 (HBV; [1]) of 24.2 nM, a solubility kinetic (Kinetic Solubility; [2]) of 89.5 µM (≈ 45.9 µg/mL) and a solubility kinetic (Kinetic Solubility; [3]) of 93.1 µM (≈ 47.7 µg/mL).
Compound `Cc1c(C(=O)Nc2ccc(F)c(F)c2)c2n(c1C(=O)C(=O)NC1(c3cn(C)nn3)CC1)CCC2` [Example 11] has an EC50 (HBV; [4]) of 71.2 nM, a solubility kinetic (Kinetic Solubility; [5]) of 48.9 µM (≈ 22.9 µg/mL) and a solubility kinetic (Kinetic Solubility; [6]) of 56.3 µM (≈ 26.4 µg/mL).
With `Cc1c(C(=O)Nc2ccc(F)c(C(F)F)c2)c2n(c1C(=O)C(=O)NC1(c3c[nH]nn3)CC1)CCC2` [Example 27, 5-(2-((1-(1H-1,2,3-triazol-4-yl)cyclopropyl)amino)-2-oxoacetyl)-N-(3-(difluoromethyl)-4-fluorophenyl)-6-methyl-2,3-dihydro-1H-pyrrolizine-7-carboxamide] the EC50 (HBV; [1]) was 23 nM, the solubility kinetic (Kinetic Solubility; [2]) was 2.7 µM (≈ 1.31 µg/mL) and the solubility kinetic (Kinetic Solubility; [3]) was 8.4 µM (≈ 4.09 µg/mL).
`Cc1c(C(=O)Nc2ccc(F)c(F)c2)c2n(c1C(=O)C(=O)NC1(c3cnn[nH]3)CC(F)(F)C1)[C@@H]1C[C@@H]1C2` [Example 34, (1aR,6aR)-3-(2-((3,3-difluoro-1-(1H-1,2,3-triazol-5-yl)cyclobutyl)amino)-2-oxoacetyl)-N-(3,4-difluorophenyl)-4-methyl-1,1a,6,6a-tetrahydrocyclopropa[a]pyrrolizine-5-carboxamide] gave an EC50 (HBV; [1]) of 14.4 nM, a solubility kinetic (Kinetic Solubility; [5]) of 51.7 µM (≈ 26.7 µg/mL) and a solubility kinetic (Kinetic Solubility; [6]) of 52.3 µM (≈ 27 µg/mL).
Compound `Cc1c(C(=O)Nc2ccc(F)cc2)c2n(c1C(=O)C(=O)NC1(c3nncs3)CC(F)(F)C1)CCC2` [Example 8] has an EC50 (HBV; [1]) of 4.7 nM, a solubility kinetic (Kinetic Solubility; [2]) of 3.9 µM (≈ 1.96 µg/mL) and a solubility kinetic (Kinetic Solubility; [3]) of 10.5 µM (≈ 5.29 µg/mL).
In the case of `CNC(=O)C1(NC(=O)C(=O)c2c(C)c(C(=O)Nc3ccc(F)c(C#N)c3)c3n2CCC3)CC(F)(F)C1` [Example 28, N-(3-cyano-4-fluorophenyl)-5-(2-((3,3-difluoro-1-(methylcarbamoyl)cyclobutyl)amino)-2-oxoacetyl)-6-methyl-2,3-dihydro-1H-pyrrolizine-7-carboxamide], the EC50 (HBV; [1]) is reported as 294 nM, the solubility kinetic (Kinetic Solubility; [2]) is reported as 25.3 µM (≈ 12.7 µg/mL) and the solubility kinetic (Kinetic Solubility; [3]) is reported as 55.7 µM (≈ 27.9 µg/mL).
